Test results taken from ChEMBL document CHEMBL3714753, “Substituted tetrahydroquinolines, phenylacetic acids and benzoic acids as hepatocyte nuclear factor 4 (hnf-4 ) modulator compounds” (2005).

Key:
[1] = biological target: T1, Hepatocyte nuclear factor 4-alpha (Homo sapiens, UniProt P41235); assay: Displacement of radiolabeled methyl-4-[5,6,7,8-tetrahydro-5,5,8,8-tetramethyl-3-ethyloxy-2-naphthalenyl]benzoyl benzoate from HNF4alpha (unknown origin)
T1 sequence (P41235 whole entry): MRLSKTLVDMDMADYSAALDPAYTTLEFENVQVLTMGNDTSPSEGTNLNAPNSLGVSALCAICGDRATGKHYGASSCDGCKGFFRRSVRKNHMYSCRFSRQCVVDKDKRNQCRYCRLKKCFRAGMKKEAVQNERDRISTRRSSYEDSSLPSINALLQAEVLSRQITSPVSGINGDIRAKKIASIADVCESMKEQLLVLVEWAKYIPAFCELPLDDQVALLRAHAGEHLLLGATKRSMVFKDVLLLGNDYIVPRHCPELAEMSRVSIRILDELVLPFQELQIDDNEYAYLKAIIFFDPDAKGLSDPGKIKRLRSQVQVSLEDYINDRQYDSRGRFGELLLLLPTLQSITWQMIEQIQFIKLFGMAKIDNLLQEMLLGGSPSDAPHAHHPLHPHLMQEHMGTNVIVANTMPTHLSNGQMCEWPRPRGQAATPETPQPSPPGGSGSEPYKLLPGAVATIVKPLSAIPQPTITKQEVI

[2] = biological target: T2, Hepatocyte nuclear factor 4-alpha (Rattus norvegicus) (UniProt P22449); assay: Agonist activity at rat HNF4alpha1 expressed in African green monkey CV1 cells incubated for 24 hrs by firefly luciferase reporter gene assay relative to LGOI00695; format: functional, cell-based; conditions: CV-1
T2 sequence (whole entry): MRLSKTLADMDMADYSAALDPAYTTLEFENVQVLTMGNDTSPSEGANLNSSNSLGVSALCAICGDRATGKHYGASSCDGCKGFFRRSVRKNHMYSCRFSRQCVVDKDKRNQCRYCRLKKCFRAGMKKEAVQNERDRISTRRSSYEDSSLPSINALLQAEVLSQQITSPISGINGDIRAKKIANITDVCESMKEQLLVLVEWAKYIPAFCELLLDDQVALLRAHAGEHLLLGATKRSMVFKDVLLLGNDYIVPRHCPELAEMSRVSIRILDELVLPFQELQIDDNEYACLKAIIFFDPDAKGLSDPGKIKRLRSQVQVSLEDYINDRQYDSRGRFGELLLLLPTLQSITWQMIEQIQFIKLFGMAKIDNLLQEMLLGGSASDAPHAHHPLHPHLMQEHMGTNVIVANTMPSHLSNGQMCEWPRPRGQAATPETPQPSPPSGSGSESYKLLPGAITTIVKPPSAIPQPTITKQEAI

[3] = biological target: T3, Hepatocyte nuclear factor 4-alpha (Rattus norvegicus, UniProt P22449); assay: Agonist activity at rat HNF4alpha1 expressed in African green monkey CV1 cells incubated for 24 hrs by firefly luciferase reporter gene assay; format: functional, cell-based, CV-1
T3 sequence (P22449 whole entry): T2 sequence (whole entry)

[4] = biological target: T2, Hepatocyte nuclear factor 4-alpha (Rattus norvegicus); assay: Antagonist activity against rat HNF4alpha1 expressed in African green monkey CV1 cells assessed as inhibition of LGOI00695-induced receptor activation incubated for 24 hrs by firefly luciferase reporter gene assay relative to control; format: functional, cell-based; conditions: CV-1
[5] = biological target: T3, Hepatocyte nuclear factor 4-alpha; assay: Antagonist activity against rat HNF4alpha1 expressed in African green monkey CV1 cells assessed as inhibition of LGOI00695-induced receptor activation incubated for 24 hrs by firefly luciferase reporter gene assay; format: functional, cell-based, CV-1

| Ki [1] | Efficacy [2] | EC50 [3] | Efficacy [4] | IC50 [5] | Compound |
| --- | --- | --- | --- | --- | --- |
| 1.07 µM | 42% | 0.778 µM |  |  | O=C(O)c1ccc(C2Nc3ccc4ccccc4c3[C@H]3OCC[C@@H]23)cc1 (relative stereo) |
| 2.17 µM |  |  | 69% | 0.3 µM | O=C(O)c1ccc(C2Nc3ccc4ccccc4c3[C@H]3OCCC[C@@H]23)cc1 (relative stereo) |
| 0.135 µM | 60% | 1.73 µM |  |  | Cc1cc2c(cc1C)[C@H]1OCCC[C@H]1[C@@H](c1ccc(C(=O)O)cc1)N2 (relative stereo) |
| 0.219 µM | 134% | 0.649 µM |  |  | O=C(O)Cc1ccc([C@H]2Nc3ccccc3[C@H]3OCCC[C@@H]23)cc1 (relative stereo) |
| 0.234 µM | 165% | 0.426 µM |  |  | COC(=O)c1ccc([C@H]2Nc3ccccc3[C@H]3OCCC[C@@H]23)cc1 (relative stereo) |
